Target: T1, SGK3 (Homo sapiens, UniProt Q96BR1)
T1 sequence (Q96BR1 1-496): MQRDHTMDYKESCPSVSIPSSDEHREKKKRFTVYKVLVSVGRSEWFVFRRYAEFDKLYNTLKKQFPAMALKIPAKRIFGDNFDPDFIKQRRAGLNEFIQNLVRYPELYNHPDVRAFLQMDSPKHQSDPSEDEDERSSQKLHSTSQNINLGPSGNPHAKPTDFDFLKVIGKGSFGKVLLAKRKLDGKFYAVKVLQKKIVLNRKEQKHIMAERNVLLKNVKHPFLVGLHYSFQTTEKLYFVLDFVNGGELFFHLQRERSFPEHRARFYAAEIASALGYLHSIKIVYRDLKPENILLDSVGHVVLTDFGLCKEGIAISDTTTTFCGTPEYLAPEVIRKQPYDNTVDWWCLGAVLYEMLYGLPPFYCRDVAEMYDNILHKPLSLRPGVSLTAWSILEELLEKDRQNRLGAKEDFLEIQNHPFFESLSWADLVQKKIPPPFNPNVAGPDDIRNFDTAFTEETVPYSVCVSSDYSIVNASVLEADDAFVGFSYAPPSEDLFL
Assay: SGK3 degradation in HEK293 cells, immunoblot
Format: cell-based
Parameters: reduced endogenous SGK isoform or S6K1 expression when administered to HEK293 cells for 48 h; endogenous in cells; host or cells: HEK293
Conditions: HEK293, 8 h; cisSGK3-PROTAC1 up to 3 μM, SGK3-PROTAC1 0.1 μM
Description: Figure 1 Design and cellular activity of first generation SGK3 PROTACs. (A) Structure of compound 14H, previously published by Sanofi as an inhibitor of SGK3. (B) Starting material for SGK PROTACs. […] (C) Structures of first generation SGK PROTACs. SGK and E3 ligase targeting motifs were joined by a 3xPEG linker to produce the PROTACs. (D) HEK293 cells were treated for 48 h with increasing concentrations of each PROTAC compound from 0.1 nM to 10 μM. Cell lysates were subjected to immunoblot analysis with the indicated antibodies, and SGK3 protein levels were quantified in Image Studio Lite software (Licor).
Figure 2 Design and cellular evaluation of second and third generation SGK PROTACs. (A) Chemical structure of compounds DAT5–12, expanding upon DAT1. (B) Chemical structure of cisSGK3-PROTAC1. (C) HEK293 cells were treated for 48 h with increasing concentrations of each PROTAC compound from 1 nM to 10 μM. Cell lysates were subjected to immunoblot analysis with the indicated antibodies, and SGK3 protein levels quantified in Image Studio Lite software. (D) HEK293 cells were treated for 48 h with increasing concentrations of each PROTAC compound from 1 nM to 10 μM. Cell lysates were subjected to immunoblot analysis with the indicated antibodies, and SGK3 and S6K1 protein levels were quantified in Image Studio Lite software. TEXT PRINTED IN THE PICTURE: (C) DAT1: % SGK3: 100 (48h Treatment (μM): 0); % SGK3: 94 (48h Treatment (μM): 0.001); % SGK3: 82 (48h Treatment (μM): 0.01); % SGK3: 70 (48h Treatment (μM): 0.1); % SGK3: 52 (48h Treatment (μM): 1); % SGK3: 31 (48h Treatment (μM): 10) | (C) DAT5: % SGK3: 100 (48h Treatment (μM): 0); % SGK3: 104 (48h Treatment (μM): 0.001); % SGK3: 82 (48h Treatment (μM): 0.01); % SGK3: 92 (48h Treatment (μM): 0.1); % SGK3: 73 (48h Treatment (μM): 1); % SGK3: 36 (48h Treatment (μM): 10) | (C) DAT6: % SGK3: 100 (48h Treatment (μM): 0); % SGK3: 105 (48h Treatment (μM): 0.001); % SGK3: 90 (48h Treatment (μM): 0.01); % SGK3: 71 (48h Treatment (μM): 0.1); % SGK3: 44 (48h Treatment (μM): 1); % SGK3: 20 (48h Treatment (μM): 10) | (C) DAT7: % SGK3: 100 (48h Treatment (μM): 0); % SGK3: 77 (48h Treatment (μM): 0.001); % SGK3: 80 (48h Treatment (μM): 0.01); % SGK3: 95 (48h Treatment (μM): 0.1); % SGK3: 37 (48h Treatment (μM): 1); % SGK3: 29 (48h Treatment (μM): 10) | (D) DAT8: % SGK3: 100 (48h Treatment (μM): 0); % SGK3: 97 (48h Treatment (μM): 0.001); % SGK3: 107 (48h Treatment (μM): 0.01); % SGK3: 34 (48h Treatment (μM): 0.1); % SGK3: 24 (48h Treatment (μM): 1); % SGK3: 19 (48h Treatment (μM): 10) | (D) DAT9: % SGK3: 100 (48h Treatment (μM): 0); % SGK3: 105 (48h Treatment (μM): 0.001); % SGK3: 71 (48h Treatment (μM): 0.01); % SGK3: 40 (48h Treatment (μM): 0.1); % SGK3: 11 (48h Treatment (μM): 1); % SGK3: 12 (48h Treatment (μM): 10) | (D) DAT10: % SGK3: 100 (48h Treatment (μM): 0); % SGK3: 100 (48h Treatment (μM): 0.001); % SGK3: 76 (48h Treatment (μM): 0.01); % SGK3: 54 (48h Treatment (μM): 0.1); % SGK3: 11 (48h Treatment (μM): 1); % SGK3: 9 (48h Treatment (μM): 10) | (D) DAT11: % SGK3: 100 (48h Treatment (μM): 0); % SGK3: 96 (48h Treatment (μM): 0.001); % SGK3: 97 (48h Treatment (μM): 0.01); % SGK3: 41 (48h Treatment (μM): 0.1); % SGK3: 32 (48h Treatment (μM): 1); % SGK3: 29 (48h Treatment (μM): 10) | (D) DAT12: % SGK3: 100 (48h Treatment (μM): 0); % SGK3: 106 (48h Treatment (μM): 0.001); % SGK3: 84 (48h Treatment (μM): 0.01); % SGK3: 79 (48h Treatment (μM): 0.1); % SGK3: 32 (48h Treatment (μM): 1); % SGK3: 29 (48h Treatment (μM): 10) DOUBTS OF THE COPYIST ABOUT THIS PICTURE: All % SGK3 values are quantification numbers printed under immunoblot lanes; each was assigned to a concentration by lane position / DAT9 and DAT10, % SGK3: the first numbers are printed run together ('100105', '100100') and were split as 100 | 105 and 100 | 100
Figure 3 Characterization of cellular activities of SGK3-PROTAC1 and cisSGK3-PROTAC1. […]

Cc1ccc(F)c(S(=O)(=O)Nc2ccc(-c3nc(OC[C@H]4CN(CCCCCCOCCOCCOCC(=O)N[C@H](C(=O)N5C[C@@H](O)C[C@H]5C(=O)NCc5ccc(-c6scnc6C)cc5)C(C)(C)C)CCO4)c4cn[nH]c4n3)cc2)c1 [cisSGK3-PROTAC1]
degradation of SGK3: failed to induce degradation of SGK3

— publication PMC6757289, “Design and Characterization of SGK3-PROTAC1, an Isoform Specific SGK3 Kinase PROTAC Degrader” (ACS Chemical Biology, 2019)
